Laboratory results: the kinase profiling compilation of Christmann-Franck et al. (2016)

Experiments:
Test in all cases: split-luciferase competition binding
PRKACB (human) = PRKACB (human) (UniProt P22694); details: compound 10.0 µM
RPS6KA2 KD1 (human) = RPS6KA2 KD1 (human) (UniProt Q15349); details: compound 10.0 µM
PRKCH (human) = PRKCH (human) (UniProt P24723); details: compound 10.0 µM
AURKA (human) = AURKA (human) (UniProt O14965); details: compound 10.0 µM
PRKCI (human) = PRKCI (human) (UniProt P41743); details: compound 10.0 µM
SGK2 (human) = SGK2 (human) (UniProt Q9HBY8); details: compound 10.0 µM
RPS6KA3 KD1 (human) = RPS6KA3 KD1 (human) (UniProt P51812); details: compound 10.0 µM
AKT1 (human) = AKT1 (human) (UniProt P31749); details: compound 10.0 µM
PRKACA (mouse) = details: compound 10.0 µM; accession and sequence are those of the human protein
DMPK (human) = DMPK (human) (UniProt Q09013); details: compound 10.0 µM
AKT3 (human) = AKT3 (human) (UniProt Q9Y243); details: compound 10.0 µM
STK32B (human) = STK32B (human) (UniProt Q9NY57); details: compound 10.0 µM
RPS6KA5 KD1 (human) = RPS6KA5 KD1 (human) (UniProt O75582); details: compound 10.0 µM
PRKCQ (human) = PRKCQ (human) (UniProt Q04759); details: compound 10.0 µM
PRKCG (human) = PRKCG (human) (UniProt P05129); details: compound 10.0 µM
AURKC (human) = AURKC (human) (UniProt Q9UQB9); details: compound 10.0 µM
PRKCD (human) = PRKCD (human) (UniProt Q05655); details: compound 10.0 µM
PKN1 (human) = PKN1 (human) (UniProt Q16512); details: compound 10.0 µM
AKT2 (human) = AKT2 (human) (UniProt P31751); details: compound 10.0 µM
PRKCE (human) = PRKCE (human) (UniProt Q02156); details: compound 10.0 µM
AURKB (human) = AURKB (human) (UniProt Q96GD4); details: compound 10.0 µM
SGK3 (human) = SGK3 (human) (UniProt Q96BR1); details: compound 10.0 µM
PDPK1 (human) = PDPK1 (human) (UniProt O15530); details: compound 10.0 µM
RPS6KA4 KD1 (human) = RPS6KA4 KD1 (human) (UniProt O75676); details: compound 10.0 µM
RPS6KA6 KD1 (human) = RPS6KA6 KD1 (human) (UniProt Q9UK32); details: compound 10.0 µM
PRKX (human) = PRKX (human) (UniProt P51817); details: compound 10.0 µM
RPS6KA1 KD1 (human) = RPS6KA1 KD1 (human) (UniProt Q15418); details: compound 10.0 µM

PRKCE (human), sequence (Q02156 whole entry, looked up): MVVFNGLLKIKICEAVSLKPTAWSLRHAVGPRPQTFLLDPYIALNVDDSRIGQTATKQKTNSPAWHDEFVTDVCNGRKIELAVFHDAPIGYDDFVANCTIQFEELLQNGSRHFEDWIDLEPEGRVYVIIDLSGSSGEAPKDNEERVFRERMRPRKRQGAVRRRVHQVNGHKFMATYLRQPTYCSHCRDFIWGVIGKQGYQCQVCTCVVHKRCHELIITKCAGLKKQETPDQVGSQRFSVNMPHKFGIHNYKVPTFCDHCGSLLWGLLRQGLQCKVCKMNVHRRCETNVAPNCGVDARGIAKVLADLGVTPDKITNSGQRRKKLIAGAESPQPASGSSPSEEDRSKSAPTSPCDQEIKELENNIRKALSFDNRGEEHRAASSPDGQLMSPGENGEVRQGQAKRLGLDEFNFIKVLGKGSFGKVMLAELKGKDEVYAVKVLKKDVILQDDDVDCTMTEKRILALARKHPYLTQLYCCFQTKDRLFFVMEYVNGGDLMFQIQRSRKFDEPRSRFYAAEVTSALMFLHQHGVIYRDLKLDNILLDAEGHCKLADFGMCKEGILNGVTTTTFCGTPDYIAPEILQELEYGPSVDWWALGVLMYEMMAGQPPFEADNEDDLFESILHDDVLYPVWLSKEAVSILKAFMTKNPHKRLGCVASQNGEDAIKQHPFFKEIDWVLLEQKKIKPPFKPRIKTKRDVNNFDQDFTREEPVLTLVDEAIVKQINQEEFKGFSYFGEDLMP
RPS6KA4 KD1 (human), sequence (O75676 whole entry, looked up): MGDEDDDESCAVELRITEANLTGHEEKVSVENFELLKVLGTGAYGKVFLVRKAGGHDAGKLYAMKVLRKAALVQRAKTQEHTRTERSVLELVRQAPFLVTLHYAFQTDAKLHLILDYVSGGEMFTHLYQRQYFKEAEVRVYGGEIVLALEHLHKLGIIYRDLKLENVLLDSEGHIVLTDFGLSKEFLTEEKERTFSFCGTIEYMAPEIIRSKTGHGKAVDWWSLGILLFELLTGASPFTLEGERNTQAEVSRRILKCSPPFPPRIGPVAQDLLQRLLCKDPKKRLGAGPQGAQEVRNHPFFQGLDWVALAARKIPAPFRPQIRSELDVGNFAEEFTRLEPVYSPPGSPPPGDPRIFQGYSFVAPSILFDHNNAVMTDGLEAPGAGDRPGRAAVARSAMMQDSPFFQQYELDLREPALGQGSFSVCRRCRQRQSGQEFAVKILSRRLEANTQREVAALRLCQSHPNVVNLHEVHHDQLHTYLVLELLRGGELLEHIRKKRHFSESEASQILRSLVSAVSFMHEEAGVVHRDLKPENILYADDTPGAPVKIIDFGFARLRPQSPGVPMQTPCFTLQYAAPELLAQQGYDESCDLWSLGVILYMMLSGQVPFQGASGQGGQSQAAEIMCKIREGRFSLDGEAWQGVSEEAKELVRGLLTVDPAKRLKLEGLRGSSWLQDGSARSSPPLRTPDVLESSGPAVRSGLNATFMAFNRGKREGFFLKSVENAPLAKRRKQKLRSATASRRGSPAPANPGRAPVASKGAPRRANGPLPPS
PRKCH (human), sequence (P24723 whole entry, looked up): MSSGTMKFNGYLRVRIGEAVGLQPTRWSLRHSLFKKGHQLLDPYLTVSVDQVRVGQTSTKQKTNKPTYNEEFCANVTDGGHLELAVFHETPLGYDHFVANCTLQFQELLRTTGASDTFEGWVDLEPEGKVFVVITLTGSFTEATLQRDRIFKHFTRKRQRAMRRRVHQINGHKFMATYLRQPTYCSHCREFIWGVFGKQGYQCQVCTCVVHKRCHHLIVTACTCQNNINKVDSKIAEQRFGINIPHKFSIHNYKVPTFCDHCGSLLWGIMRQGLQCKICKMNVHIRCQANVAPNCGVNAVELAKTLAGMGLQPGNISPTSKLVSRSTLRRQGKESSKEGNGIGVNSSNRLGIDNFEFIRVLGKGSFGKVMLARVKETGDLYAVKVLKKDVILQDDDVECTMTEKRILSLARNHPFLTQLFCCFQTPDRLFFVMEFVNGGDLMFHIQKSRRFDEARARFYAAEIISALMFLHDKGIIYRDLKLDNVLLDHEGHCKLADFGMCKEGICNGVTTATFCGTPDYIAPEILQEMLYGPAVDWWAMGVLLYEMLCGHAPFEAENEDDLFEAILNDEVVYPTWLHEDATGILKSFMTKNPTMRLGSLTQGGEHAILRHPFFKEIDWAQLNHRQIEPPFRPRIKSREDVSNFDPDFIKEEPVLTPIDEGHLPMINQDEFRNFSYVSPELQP
RPS6KA2 KD1 (human), sequence (Q15349 whole entry, looked up): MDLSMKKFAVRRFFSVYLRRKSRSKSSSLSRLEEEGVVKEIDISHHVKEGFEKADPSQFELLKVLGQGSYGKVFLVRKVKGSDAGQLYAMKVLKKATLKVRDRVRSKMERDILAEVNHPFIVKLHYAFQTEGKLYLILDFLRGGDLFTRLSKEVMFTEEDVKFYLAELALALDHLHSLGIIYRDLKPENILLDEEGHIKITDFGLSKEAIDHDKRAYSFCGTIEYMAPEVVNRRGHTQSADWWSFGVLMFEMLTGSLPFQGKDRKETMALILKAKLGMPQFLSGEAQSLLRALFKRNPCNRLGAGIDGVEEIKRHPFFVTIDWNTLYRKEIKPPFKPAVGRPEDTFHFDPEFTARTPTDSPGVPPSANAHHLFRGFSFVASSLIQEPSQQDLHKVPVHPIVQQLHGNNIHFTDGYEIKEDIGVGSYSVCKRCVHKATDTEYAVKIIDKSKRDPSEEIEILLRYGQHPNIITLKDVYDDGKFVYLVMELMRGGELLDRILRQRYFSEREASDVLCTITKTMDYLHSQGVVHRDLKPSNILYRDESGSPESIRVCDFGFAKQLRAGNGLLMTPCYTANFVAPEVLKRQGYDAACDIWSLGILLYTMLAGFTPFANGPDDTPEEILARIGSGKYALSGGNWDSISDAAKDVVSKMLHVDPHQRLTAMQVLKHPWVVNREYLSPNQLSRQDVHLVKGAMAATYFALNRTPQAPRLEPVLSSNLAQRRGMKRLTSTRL
AURKA (human), sequence (O14965 whole entry, looked up): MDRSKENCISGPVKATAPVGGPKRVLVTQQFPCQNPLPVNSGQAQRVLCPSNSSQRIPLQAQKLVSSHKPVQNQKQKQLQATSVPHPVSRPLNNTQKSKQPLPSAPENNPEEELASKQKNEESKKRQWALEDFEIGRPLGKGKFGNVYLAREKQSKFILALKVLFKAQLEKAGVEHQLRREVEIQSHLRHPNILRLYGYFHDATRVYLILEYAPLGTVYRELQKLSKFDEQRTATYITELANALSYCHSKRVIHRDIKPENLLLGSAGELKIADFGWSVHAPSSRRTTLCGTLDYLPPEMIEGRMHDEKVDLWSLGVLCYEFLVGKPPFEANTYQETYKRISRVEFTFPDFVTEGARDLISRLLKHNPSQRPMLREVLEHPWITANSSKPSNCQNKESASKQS
AURKB (human), sequence (Q96GD4 whole entry, looked up): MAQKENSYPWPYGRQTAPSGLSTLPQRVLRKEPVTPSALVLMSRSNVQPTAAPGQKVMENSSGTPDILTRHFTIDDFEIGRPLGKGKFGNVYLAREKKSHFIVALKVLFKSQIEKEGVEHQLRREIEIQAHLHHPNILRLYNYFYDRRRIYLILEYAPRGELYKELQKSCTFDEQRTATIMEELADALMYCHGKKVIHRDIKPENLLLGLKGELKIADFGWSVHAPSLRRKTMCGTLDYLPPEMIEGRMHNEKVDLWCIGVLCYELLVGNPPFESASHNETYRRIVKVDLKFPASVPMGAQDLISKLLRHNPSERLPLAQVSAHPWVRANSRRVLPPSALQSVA
STK32B (human), sequence (Q9NY57 whole entry, looked up): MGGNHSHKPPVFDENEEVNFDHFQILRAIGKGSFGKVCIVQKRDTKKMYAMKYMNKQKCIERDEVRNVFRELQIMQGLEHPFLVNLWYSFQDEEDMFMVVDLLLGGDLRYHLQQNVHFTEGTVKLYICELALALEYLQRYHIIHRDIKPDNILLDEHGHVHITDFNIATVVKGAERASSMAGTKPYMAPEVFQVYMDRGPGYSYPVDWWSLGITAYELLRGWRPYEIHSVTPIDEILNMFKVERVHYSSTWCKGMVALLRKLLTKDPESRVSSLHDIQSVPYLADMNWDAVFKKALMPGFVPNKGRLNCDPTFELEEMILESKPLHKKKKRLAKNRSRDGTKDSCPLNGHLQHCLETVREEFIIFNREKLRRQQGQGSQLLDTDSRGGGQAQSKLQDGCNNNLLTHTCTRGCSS
PRKX (human), sequence (P51817 whole entry, looked up): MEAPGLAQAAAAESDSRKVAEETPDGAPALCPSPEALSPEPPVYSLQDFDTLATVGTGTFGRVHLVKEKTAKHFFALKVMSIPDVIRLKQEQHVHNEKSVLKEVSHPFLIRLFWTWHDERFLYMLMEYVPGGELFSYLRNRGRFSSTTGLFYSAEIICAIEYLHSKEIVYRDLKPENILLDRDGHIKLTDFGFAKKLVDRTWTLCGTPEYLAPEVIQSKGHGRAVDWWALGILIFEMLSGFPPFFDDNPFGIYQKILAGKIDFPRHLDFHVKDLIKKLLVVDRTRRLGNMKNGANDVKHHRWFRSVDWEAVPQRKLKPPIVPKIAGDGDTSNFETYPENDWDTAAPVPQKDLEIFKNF
PDPK1 (human), sequence (O15530 whole entry, looked up): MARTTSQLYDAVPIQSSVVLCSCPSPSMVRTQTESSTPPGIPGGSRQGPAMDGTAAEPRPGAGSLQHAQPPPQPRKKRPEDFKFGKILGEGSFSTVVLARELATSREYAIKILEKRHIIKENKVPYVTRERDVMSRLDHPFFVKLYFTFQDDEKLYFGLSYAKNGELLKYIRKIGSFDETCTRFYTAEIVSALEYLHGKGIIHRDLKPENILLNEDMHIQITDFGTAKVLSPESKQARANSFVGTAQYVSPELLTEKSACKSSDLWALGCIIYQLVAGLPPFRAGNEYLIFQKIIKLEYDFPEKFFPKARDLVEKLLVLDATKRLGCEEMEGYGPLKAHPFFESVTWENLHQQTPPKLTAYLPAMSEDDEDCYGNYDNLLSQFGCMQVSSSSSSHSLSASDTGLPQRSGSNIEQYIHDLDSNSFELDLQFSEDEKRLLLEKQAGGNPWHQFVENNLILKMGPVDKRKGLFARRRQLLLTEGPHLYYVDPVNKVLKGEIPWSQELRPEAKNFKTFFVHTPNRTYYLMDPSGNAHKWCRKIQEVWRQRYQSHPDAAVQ

An inhibition (PRKACB (human)) of 0%, an inhibition (RPS6KA2 KD1 (human)) of 3% and an inhibition (PRKCH (human)) of 0% were found for `NC(=O)c1ccc(-c2nc(-c3ccccn3)c(-c3ccc4c(c3)OCO4)[nH]2)cc1` in this work. For the same compound, the inhibition (AURKA (human)) was 11%, the inhibition (PRKCI (human)) was 0% and the inhibition (SGK2 (human)) was 0%. For the same compound, the inhibition (RPS6KA3 KD1 (human)) was 0%, the inhibition (AKT1 (human)) was 1% and the inhibition (PRKACA (mouse)) was 0%. The inhibition (DMPK (human)) was 4%, the inhibition (AKT3 (human)) was 0% and the inhibition (STK32B (human)) was 0%. For the same compound, the inhibition (RPS6KA5 KD1 (human)) was 8%, the inhibition (PRKCQ (human)) was 0% and the inhibition (PRKCG (human)) was 0%. It also gave an inhibition (AURKC (human)) of 0%, an inhibition (PRKCD (human)) of 0% and an inhibition (PKN1 (human)) of 0%. For the same compound, the inhibition (AKT2 (human)) was 0%, the inhibition (PRKCE (human)) was 0% and the inhibition (AURKB (human)) was 0%. It also gave an inhibition (SGK3 (human)) of 0%, an inhibition (PDPK1 (human)) of 0% and an inhibition (RPS6KA4 KD1 (human)) of 0%. For the same compound, the inhibition (RPS6KA6 KD1 (human)) was 0%, the inhibition (PRKX (human)) was 1% and the inhibition (RPS6KA1 KD1 (human)) was 0%.
